Measurements: the NIST ThermoML archive (doi:10.1016/j.fluid.2015.10.026)
± gives the expanded uncertainty stated by the source.

Conditions: Liquid, Brillouin light scattering

With `Cc1ccccc1` [toluene] as the molecule, how does the speed of sound (323.15 K) read?
The speed of sound was 1200.8 ± 6 m/s.

What about the speed of sound (373.15 K) of the same molecule?
The speed of sound was 1000 ± 5 m/s.

What about the speed of sound (423.15 K) of the same molecule?
The speed of sound was 806 ± 5.2 m/s.

What about the speed of sound (473.15 K) of the same molecule?
The speed of sound was 616.2 ± 3.3 m/s.

And the speed of sound (523.15 K)?
Its speed of sound is 425.5 ± 2.4 m/s.
